Test system: anti-VCAp18 antibodies of EBV-positive sera
Test: Measurement of the binding affinity to the antibody (method of FRIGUET, ELISA inhibition by soluble VCAp18/SEQ ID No. 2)
Design: species or system human
Conditions: increasing concentrations of soluble peptide
Method: The specificity of the binding of the positive sera to the different mixotopes in solid phase is evaluated by the absorption of the antibodies by the native antigen VCAp18/SEQ ID No. 2 in solution, using the method of B. FRIGUET et al. (J. Immunol. Methods, 1985, 77, 305-319).
This method is based on the measurement of the free antibody concentration by an indirect ELISA method when the antigen VCAp18/SEQ ID No. 2 and the antibodies are in equilibrium in solution.
The antigen VCAp18/SEQ ID No. 2, at different concentrations (10^−10 M to 2×10^−6 M), is first incubated in solution (PBS-T buffer+2% BSA) with an EBV-positive serum, at a constant concentration (1/50) until the equilibrium state is reached. […]
After washing with PBS-T buffer, the bound immunoglobulins are detected by addition of peroxidase-coupled goat antibodies anti-human IgG-A-Ms.
This method gives the displacement curves for the A/Ao bond relative to log(ao). A precise estimation of the mean affinity of the serum containing the anti-VCAp18 antibodies is given by the equation Ao/(Ao−A)=1/ν=1+Kd/ao, in which ao is the total soluble antigen concentration, A and Ao are the absorbance values at 492 nm with or without blocking antigen, respectively, and ν is the bound antibody fraction, if the different conditions set out in FRIGUET et al. are satisfied.

Q: How did the “inhibition of the binding of the human sera to the 3 mixotopes in solid phase” value turn out when “CAVDTGSGGGGQPHDTAPRGARKKQ [VCAp18/SEQ ID No. 2]” was run?
A: specifically and strongly inhibited

Reference: US6818219B1, “Reagent for detecting and monitoring viral infections” (Institut Pasteur de Lille, priority 1997, dated 2004)
